Test: molar heat capacity at constant pressure; mn = molality of the nth substance listed, in mol/kg
Settings: 100 kPa, Liquid, Flow calorimetry

[Cl][Cu][Cl] [copper chloride] + O
molar heat capacity at constant pressure [J/K/mol]
Settings | 298.15 K | 303.15 K | 313.15 K | 323.15 K | 333.15 K | 343.15 K | 353.15 K | 363.15 K
m1 = 0.2971 | 74.06 | 74.34 | 74.86 | 75.29 | 75.6 | 75.85 | 75.98 | 76.05
m1 = 0.5433 | 73.82 | 74.14 | 74.68 | 75.1 | 75.41 | 75.6 | 75.69 | 75.68
m1 = 0.7083 | 73.51 | 73.84 | 74.42 | 74.85 | 75.16 | 75.34 | 75.34 | 75.3
m1 = 1.018 | 73.01 | 73.37 | 74 | 74.48 | 74.86 | 75.1 | 75.24 | 75.22
m1 = 1.448 | 72.53 | 72.93 | 73.62 | 74.19 | 74.61 | 74.9 | 75.05 | 75.05
m1 = 1.899 | 72.05 | 72.47 | 73.19 | 73.8 | 74.24 | 74.59 | 74.74 | 74.78
m1 = 2.012 | 72.27 | 72.71 | 73.51 | 74.13 | 74.61 | 74.94 | 75.12 | 75.12
m1 = 2.424 | 72.23 | 72.74 | 73.63 | 74.38 | 74.96 | 75.37 | 75.64 | 75.73
m1 = 2.954 | 72.36 | 72.91 | 73.85 | 74.59 | 75.16 | 75.52 | 75.71 | 75.71
m1 = 3.454 | 72.47 | 73.05 | 74.06 | 74.93 | 75.63 | 76.15 | 76.52 | 76.67
m1 = 4.036 | 72.69 | 73.32 | 74.4 | 75.31 | 76.01 | 76.5 | 76.79 | 76.89
m1 = 4.452 | 72.71 | 73.37 | 74.54 | 75.48 | 76.17 | 76.62 | 76.81 | 76.78

[Cl][Ni][Cl] [nickel chloride (NiCl2)] + O
molar heat capacity at constant pressure [J/K/mol]
Settings | 298.15 K | 303.15 K | 313.15 K | 323.15 K | 333.15 K | 343.15 K | 353.15 K | 363.15 K
m1 = 0.1432 | 74.53 | 74.56 | 74.64 | 74.73 | 74.84 | 74.97 | 75.09 | 75.24
m1 = 0.3571 | 73.64 | 73.75 | 73.98 | 74.17 | 74.3 | 74.41 | 74.48 | 74.5
m1 = 0.7035 | 72.08 | 72.41 | 72.91 | 73.42 | 73.73 | 73.92 | 73.96 | 73.88
m1 = 0.9968 | 70.92 | 71.28 | 71.88 | 72.38 | 72.74 | 72.98 | 73.12 | 73.12
m1 = 1.24 | 70.61 | 70.99 | 71.67 | 72.22 | 72.63 | 72.92 | 73.06 | 73.08
m1 = 1.53 | 70.09 | 70.49 | 71.18 | 71.73 | 72.15 | 72.44 | 72.59 | 72.59
m1 = 1.874 | 69.74 | 70.16 | 70.89 | 71.5 | 71.93 | 72.23 | 72.41 | 72.45
m1 = 2.241 | 69.49 | 69.96 | 70.74 | 71.39 | 71.88 | 72.2 | 72.37 | 72.4
m1 = 2.608 | 69.48 | 69.99 | 70.89 | 71.63 | 72.2 | 72.64 | 72.89 | 72.98
m1 = 3.614 | 69.27 | 69.86 | 70.88 | 71.73 | 72.42 | 72.94 | 73.29 | 73.49
m1 = 4.102 | 69.42 | 70.04 | 71.12 | 72.02 | 72.69 | 73.18 | 73.48 | 73.56

Reference: the NIST ThermoML archive (doi:10.1021/acs.jced.7b00483)
